{"source": "patent US10583154B2", "about": "“Multi-dose compositions containing an antimicrobial polyamide or octenidine preservative” (priority 2016, dated 2020)", "settings": "in vivo, iv"}
{"substance": "4,4′-trimethylene dipiperidine bispropanoic acid-co-1,3-diamino propane", "values": [{"measurement": "maximum tolerated dose", "result": "~40", "unit": "mg/kg"}]}
